Assay results as given in ChEMBL document CHEMBL1122344, “Pyridazinones. 2. Synthesis and antisecretory and antiulcer activities of thiourea and 2-cyanoguanidine derivatives” (1983).

Tests used:
Assay type in all cases: functional
[1] = tested on: Rattus norvegicus; assay: Gastric antisecretory activity at the dose of 100 mg/kg in pylorus lygated rats
[2] = species on record: Rattus norvegicus; assay: Dose required to inhibit gastric secretory activity in pylorus lygated rats; settings: Stomach
[3] = species on record: Rattus norvegicus; assay: Dose required to inhibit ulcer induced by stress in rats

SMILES | inhibition in vivo at 100 mg/kg [1] [%] | ED50 [2] [mg/kg] | ED50 [3] [mg/kg]
CCC/N=C(/NC#N)NCCCn1nc(C)ccc1=O | 17.5 | – | –
O=c1ccc(-c2ccccc2)nn1CCCCNC(=S)Nc1ccccc1 | 38.4 | > 100 | > 100
O=c1ccc(-c2ccccc2)nn1CCCCNC(=S)NCc1ccccc1 | 5.4 | – | –
C/N=C(/NC#N)NCCCCn1nc(-c2ccc(Cl)cc2)ccc1=O | 51 | 100 | –
CN(C)/C(=N/CCCCCn1nc(-c2ccccc2)ccc1=O)NC#N | 63.9 | 81.5 | 53.1
C/N=C(\S)NCCCCCCn1nc(-c2ccccc2)ccc1=O | 22.2 | – | –
CN(C)/C(=N/CCCCCCn1nc(-c2ccccc2)ccc1=O)NC#N | 58.4 | 93.1 | 92.5
CC/N=C(\S)NCCCn1nc(-c2ccccc2)ccc1=O | 39 | > 100 | 88.2
O=c1ccc(-c2ccccc2)nn1CCCCNC(=S)NC1CCCCC1 | 18.1 | – | –
CC/N=C(/NC#N)NCCCn1nc(C)ccc1=O | 34.5 | > 100 | –
C/N=C(\NC#N)NCCCCn1nc(-c2ccccc2)ccc1=O | 79 | – | –
CC/N=C(/NC#N)NCCCCn1nc(-c2ccccc2)cc(C)c1=O | 42.5 | > 100 | –
N#CNC(=N)NCCCCCn1nc(-c2ccccc2)ccc1=O | 31 | > 100 | –
O=c1ccc(-c2ccccc2)nn1CCCCNC(=S)Nc1ccc(Cl)cc1 | 43.2 | > 100 | –
O=c1ccc(-c2ccccc2)nn1CCCNC(=S)NC1CCCCC1 | 23.6 | – | –
C/N=C(/NC#N)NCCCCCn1nc(-c2ccccc2)ccc1=O | 47.6 | 100 | 76.2
N#CNC(=N)NCCCCn1nc(-c2ccccc2)ccc1=O | 61.2 | 77.2 | 59.3
N/C(S)=N/CCCCn1nc(-c2ccccc2)ccc1=O | 72 | 36.3 | –
C/N=C(/NC#N)NCCCCn1nc(C)ccc1=O | 23.5 | > 100 | –
CC/N=C(/NC#N)NCCCCCCn1nc(-c2ccccc2)ccc1=O | 29.1 | > 100 | > 100
CN(C)/C(=N/CCCn1nc(-c2ccccc2)ccc1=O)NC#N | 72.2 | 53 | 93.1

SMILES | inhibition in vivo at 100 mg/kg [1] [%] | ED50 [2] [mg/kg] | ED50 [3] [mg/kg]
C#CCN/C(=N/CCCCn1nc(-c2ccccc2)ccc1=O)NC#N | -12.9 | – | –
C=CCNC(=S)NCCCCn1nc(-c2ccccc2)ccc1=O | 27.1 | > 100 | 78.6
O=c1ccc(-c2ccccc2)nn1CCCC/N=C(\S)Nc1cccc(F)c1 | 30.4 | > 100 | –
CC/N=C(\S)NCCCCCn1nc(-c2ccccc2)ccc1=O | 66.4 | 51.8 | –
CCC/N=C(/NC#N)NCCCCCn1nc(-c2ccccc2)ccc1=O | 27.5 | > 100 | –
C/N=C(\S)NCCn1nc(-c2ccccc2)ccc1=O | 23.3 | – | > 100
O=c1ccc(-c2ccccc2)nn1CCCNC(=S)Nc1ccccc1 | 12.1 | – | –
N#CNC(=N)NCCCCCCn1nc(-c2ccccc2)ccc1=O | 20.5 | – | –
C/N=C(\S)NCCCCCCn1nc(C)ccc1=O | -12.5 | – | –
C/N=C(/NC#N)NCCCCn1nc(N2CCN(C)CC2)ccc1=O | 7.9 | – | –
O=c1ccc(-c2ccccc2)nn1CCNC(=S)NC1CCCCC1 | 12.3 | – | –
N#CNC(=N)NCCCn1nc(-c2ccccc2)ccc1=O | 33.3 | > 100 | –
C/N=C(/NC#N)NCCCCn1nc(-c2ccccc2)cc(C)c1=O | 68.6 | 60.8 | –
CC(C)C/N=C(\S)NCCCCn1nc(-c2ccccc2)ccc1=O | 35.8 | > 100 | –
C/N=C(/NC#N)NCCCn1nc(C)ccc1=O | 6.8 | – | –
CN(C)/C(=N/CCCCn1nc(-c2ccccc2)ccc1=O)NC#N | 80.7 | 30.3 | 52.9
C/N=C(/NC#N)NCCCCn1nc(N2CCCC2)ccc1=O | -1 | – | –
C/N=C(/NC#N)N(C)CCCCn1nc(-c2ccccc2)ccc1=O | 27 | > 100 | –
CC/N=C(/NC#N)NCCCCn1nc(C)ccc1=O | 13.5 | – | –
C/N=C(/NC#N)NCCCn1nc(-c2ccccc2)ccc1=O | 40.5 | > 100 | 78.1
CN/C(=N\CCSCc1nc[nH]c1C)NC#N [CIMETIDINE] | 80.6 | – | 43.2
